Active and inactive are the calls of the source.
How the values were obtained:
Streptokinase A = target: T1, Streptokinase A (Streptococcus pyogenes serotype M1, UniProt P10520); assay: S. pyogenes streptokinase expression inhibitors, potency, dose response, plasminogen activation absorbance, OD405 (AID 1914); format: functional, Streptococcus pyogenes M1 GAS;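 further: secreted streptokinase activity via plasminogen activation per viability signal from cell pellet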
T1 sequence (P10520 whole entry): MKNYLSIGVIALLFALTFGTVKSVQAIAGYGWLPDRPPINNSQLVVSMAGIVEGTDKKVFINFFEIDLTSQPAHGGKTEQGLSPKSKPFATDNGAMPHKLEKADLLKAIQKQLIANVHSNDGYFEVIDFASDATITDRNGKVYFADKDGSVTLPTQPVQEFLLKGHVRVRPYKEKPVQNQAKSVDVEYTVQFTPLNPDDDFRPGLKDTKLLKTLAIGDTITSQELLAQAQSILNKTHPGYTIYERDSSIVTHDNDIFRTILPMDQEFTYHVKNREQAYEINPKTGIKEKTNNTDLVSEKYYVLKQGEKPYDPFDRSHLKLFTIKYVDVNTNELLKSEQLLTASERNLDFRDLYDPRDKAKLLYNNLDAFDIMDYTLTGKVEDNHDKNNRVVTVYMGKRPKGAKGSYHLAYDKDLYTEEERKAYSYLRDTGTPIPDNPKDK

Streptococcus = assay: Group A Streptococcus viability loss, dose response, counter-screen for streptokinase expression inhibitor project, luminescence, BacTiterGlo (AID 1915); format: functional, organism-based;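 further: potency for reduction of bacterial viability or growth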
[1] = test system: Streptococcus sp. 'group A'; assay: growth inhibition of control SK(-) GAS strain, dose response, counter-screen for streptokinase expression inhibitor project, luminescence, kanamycin, BacTiterGlo, confirmation (AID 1900); format: functional, organism-based
[2] = inhibitors of SNCA 5'UTR-driven reporter translation, confirmation, H4 neuroglioma cells, luminescence (AID 1988); format: functional, cell-based
[3] = Luminescence Cell-Based Dose Response HTS to Identify Inhibitors of 5'UTR Stem-Loop Driven Prion Protein mRNA Translation in H4 Neuroglioblastoma Cells. [Related pubchem assays: 1827 (Project Summary), 1813 (Primary HTS)]; format: functional
[4] = target: T2, Corticotropin-releasing factor receptor 2/Corticotropin-releasing factor-binding protein (Homo sapiens, UniProt P24387+Q13324); assay: activators of CRF receptor 2 with binding protein – uHTS hits, confirmation (AID 602473); format: functional; conditions: read-out: EC50_Mean
T2 sequence (Q13324 whole entry): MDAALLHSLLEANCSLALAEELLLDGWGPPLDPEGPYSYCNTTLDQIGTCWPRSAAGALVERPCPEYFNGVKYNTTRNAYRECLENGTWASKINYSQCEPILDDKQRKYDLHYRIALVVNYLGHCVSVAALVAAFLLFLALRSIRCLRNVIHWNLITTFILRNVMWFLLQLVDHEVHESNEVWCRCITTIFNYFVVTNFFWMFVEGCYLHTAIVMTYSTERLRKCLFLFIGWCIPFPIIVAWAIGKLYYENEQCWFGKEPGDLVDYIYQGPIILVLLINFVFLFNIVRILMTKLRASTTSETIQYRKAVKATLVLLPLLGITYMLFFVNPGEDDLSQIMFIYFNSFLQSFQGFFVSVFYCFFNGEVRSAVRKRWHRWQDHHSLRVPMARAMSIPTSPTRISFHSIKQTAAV
T2 sequence (P24387 whole entry): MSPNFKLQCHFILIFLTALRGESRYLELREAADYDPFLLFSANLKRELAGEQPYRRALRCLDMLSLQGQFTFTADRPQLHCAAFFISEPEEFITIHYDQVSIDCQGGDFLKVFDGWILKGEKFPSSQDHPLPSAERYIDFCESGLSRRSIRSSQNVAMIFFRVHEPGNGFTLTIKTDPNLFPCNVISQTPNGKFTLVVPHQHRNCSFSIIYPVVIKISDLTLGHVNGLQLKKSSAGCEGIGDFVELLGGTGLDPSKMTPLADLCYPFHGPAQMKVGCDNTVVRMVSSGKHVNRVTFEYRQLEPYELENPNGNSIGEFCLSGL

Cytochrome P450 2C19 = Cytochrome P450 2C19 (Homo sapiens, UniProt P33261); assay: Cytochrome panel assay with activity outcomes. Panel member name: p450-cyp2c19 Compounds with AC50 equal or less than 10 uM are considered active; format: functional
Cytochrome P450 2D6 = Cytochrome P450 2D6 (Homo sapiens, UniProt P10635);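 further: CYP2D6 member of a cytochrome P450 panel assay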
Cytochrome P450 2C9 = Cytochrome P450 2C9 (Homo sapiens, UniProt P11712)
[5] = target: T2, Corticotropin-releasing factor receptor 2/Corticotropin-releasing factor-binding protein; assay: Dose Response confirmation of uHTS hits for small molecule antagonists of the CRF-binding protein and CRF-R2 receptor complex.; format: functional; conditions: read-out: IC50_Mean
[6] = inhibitors of intracellular T. cruzi replication, confirmation, NIH3T3 host cells, beta-gal luminescence (AID 2044); format: functional, cell-based;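 further: intracellular parasites grown in NIH/3T3 mouse fibroblasts as host cells; luminescent beta-galactosidase reporter signal from transgenic T. cruzi replicating inside host cells; inhibitors lower the luminescence signal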
[7] = cytotoxicity toward NIH3T3 fibroblasts, dose response, counter-screen, cell-based, ATP luminescence, mouse fibroblasts (AID 2010); format: functional;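 further: cells exposed to compound for about 90 hours before reading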

Sequence of Cytochrome P450 2D6 (P10635 whole entry): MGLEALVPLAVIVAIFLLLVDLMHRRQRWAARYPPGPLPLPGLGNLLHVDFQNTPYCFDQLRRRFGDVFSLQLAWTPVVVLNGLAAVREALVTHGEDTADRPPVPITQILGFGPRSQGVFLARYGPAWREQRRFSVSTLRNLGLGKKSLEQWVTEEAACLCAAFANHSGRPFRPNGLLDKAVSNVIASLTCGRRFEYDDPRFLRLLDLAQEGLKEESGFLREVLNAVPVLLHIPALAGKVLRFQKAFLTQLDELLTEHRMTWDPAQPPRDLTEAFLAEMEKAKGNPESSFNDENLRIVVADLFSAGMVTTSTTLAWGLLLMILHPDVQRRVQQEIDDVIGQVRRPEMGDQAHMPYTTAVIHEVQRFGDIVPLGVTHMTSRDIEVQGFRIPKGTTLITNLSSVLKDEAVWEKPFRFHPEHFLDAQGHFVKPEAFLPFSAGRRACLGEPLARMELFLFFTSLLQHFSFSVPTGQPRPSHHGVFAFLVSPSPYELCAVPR
Sequence of Cytochrome P450 2C19 (P33261 whole entry): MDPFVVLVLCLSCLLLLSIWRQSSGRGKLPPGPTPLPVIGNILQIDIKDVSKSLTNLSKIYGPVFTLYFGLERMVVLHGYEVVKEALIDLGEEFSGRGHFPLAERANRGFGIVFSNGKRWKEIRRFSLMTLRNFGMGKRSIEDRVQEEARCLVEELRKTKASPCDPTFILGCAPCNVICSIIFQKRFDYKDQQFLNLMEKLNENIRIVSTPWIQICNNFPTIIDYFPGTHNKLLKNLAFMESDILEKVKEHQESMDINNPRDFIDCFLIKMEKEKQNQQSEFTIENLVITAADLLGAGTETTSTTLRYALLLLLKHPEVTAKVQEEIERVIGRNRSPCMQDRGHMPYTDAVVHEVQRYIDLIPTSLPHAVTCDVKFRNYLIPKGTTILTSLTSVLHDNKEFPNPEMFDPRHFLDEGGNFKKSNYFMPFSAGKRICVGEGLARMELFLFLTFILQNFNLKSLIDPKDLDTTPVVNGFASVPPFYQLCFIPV
Sequence of Cytochrome P450 2C9 (P11712 whole entry): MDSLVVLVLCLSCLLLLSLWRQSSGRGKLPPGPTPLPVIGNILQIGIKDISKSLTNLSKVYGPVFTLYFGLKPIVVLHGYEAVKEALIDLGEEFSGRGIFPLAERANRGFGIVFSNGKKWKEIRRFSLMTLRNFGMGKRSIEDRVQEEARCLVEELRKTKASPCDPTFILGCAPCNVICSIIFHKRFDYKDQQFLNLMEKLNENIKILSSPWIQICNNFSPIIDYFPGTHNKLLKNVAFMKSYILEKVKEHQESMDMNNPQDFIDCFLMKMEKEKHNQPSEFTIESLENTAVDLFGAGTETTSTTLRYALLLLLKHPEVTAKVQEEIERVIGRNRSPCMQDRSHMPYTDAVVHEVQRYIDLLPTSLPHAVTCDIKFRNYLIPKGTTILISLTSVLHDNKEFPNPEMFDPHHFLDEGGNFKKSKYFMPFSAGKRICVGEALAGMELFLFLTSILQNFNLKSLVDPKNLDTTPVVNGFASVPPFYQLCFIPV

CC1CCN(C(=O)c2ccc3c(c2)NC(=O)/C(=C/c2ccccc2)S3)CC1
EC50 (Streptokinase A): > 150 µM (not active) | EC50 (Streptococcus): 6.87 µM (active) | EC50 [1]: 2.64 µM (active)

Cc1ccc2c(COC(=O)C3=COCCO3)cc(=O)oc2c1
EC50 [2]: 8.1 µM (inconclusive) | EC50 [3]: 10.5 µM (active)

COc1ccccc1N(CC(=O)N1CCCCC1C)S(=O)(=O)c1ccc(Cl)cc1 (stereo not drawn)
EC50 [4]: 5.95 µM (active)

O=C(O)Cc1ccc2ocnc2c1
AC50 (Cytochrome P450 2C19): inconclusive

Cc1cccc(CNc2ncncc2-c2cccnc2)c1
AC50 (Cytochrome P450 2D6): 25.1 µM (inconclusive)

FC(F)(F)c1cc(Sc2ccccc2)nc(-c2ccccn2)n1
AC50 (Cytochrome P450 2D6): 11.2 µM (inconclusive) | AC50 (Cytochrome P450 2C9): 14.1 µM (inconclusive)

CC(C)[C@H](CO)Nc1nc(Nc2cccc(Cl)c2)c2ncn(C(C)C)c2n1 [PURVALANOLA]
AC50 (Cytochrome P450 2C9): 39.8 µM (inconclusive)

CC(=O)N(CC(=O)O)c1ccccc1C(=O)O
AC50 (Cytochrome P450 2C19; read-out: AC50): 0.0562 µM (inconclusive)

CC(=O)Oc1ccc2cc(-c3cccnc3)c(=O)oc2c1
IC50 [5]: > 47.1 µM (inactive) | EC50 [4]: > 53 µM (inactive)

Cc1ccc(OCc2ccc(C(=O)Nc3c(C)nn(Cc4c(F)c(F)c(F)c(F)c4F)c3C)o2)c([N+](=O)[O-])c1
EC50 (Streptokinase A): 25.6 µM (inconclusive) | EC50 (Streptococcus): > 150 µM (not active) | EC50 [1]: 25.3 µM (active)

COc1cccc(N2CCN(S(=O)(=O)c3c(C)[nH]c(C)c3C(=O)N3CCCC3)CC2)c1
IC50 [5]: > 47.1 µM (inactive) | EC50 [4]: > 53 µM (inactive)

O=C(NCc1ccc(OC(F)(F)F)cc1)c1cccc2c1C(=O)c1ccc(N3CCCC3)cc1S2(=O)=O
EC50 [4]: 11.8 µM (active)

CC(=O)Nc1nonc1NC(=O)c1ccc(C(C)(C)C)cc1
AC50 (Cytochrome P450 2C19; read-out: AC50): 3.55 µM (inconclusive) | AC50 (Cytochrome P450 2C9): 3.55 µM (inconclusive)

Oc1ccc2ccccc2c1CN(Cc1c(O)ccc2ccccc12)C1CCCCC1
AC50 (Cytochrome P450 2C9): 7.94 µM (inconclusive)

Cc1cnc(CNc2ncnc3ccc(-c4ccc5c(c4)OCO5)cc23)cn1
AC50 (Cytochrome P450 2C19; read-out: AC50): 15.8 µM (inconclusive)

Fc1ccccc1CCNCc1cccc(Cl)c1Cl
AC50 (Cytochrome P450 2C9): 39.8 µM (inconclusive)

CCOC(=O)c1ccc(-c2ccc3c(=O)c4ccccc4n(C)c3c2)cc1F
EC50 (Streptokinase A): > 150 µM (not active) | EC50 (Streptococcus): > 150 µM (not active) | EC50 [1]: 3.46 µM (active)

CCCCCCCCCSc1nnc(N)[nH]1
IC50 [5]: > 47.1 µM (inactive) | EC50 [4]: > 53 µM (inactive)

O=C(CSCC(=O)Nc1cccc([N+](=O)[O-])c1)Nc1ccccc1
IC50 [5]: > 47.1 µM (inactive) | EC50 [4]: > 53 µM (inactive)

Cc1occc1C(=O)NNC(=O)c1ccc(F)cc1
AC50 (Cytochrome P450 2C19): inconclusive

CCN1C(c2ccccc2)C(C)C(=O)C(C)C1c1ccccc1 (stereo not drawn)
IC50 [5]: > 47.1 µM (inactive) | EC50 [4]: > 53 µM (inactive)

CC(C)CN(CC(C)C)S(=O)(=O)N1CCC(C(=O)NCc2ccc(F)cc2)CC1
AC50 (Cytochrome P450 2C19; read-out: AC50): 25.1 µM (inconclusive)

C=Cn1cc[n+](CC(=O)c2ccc(Cl)cc2)c1
IC50 [5]: > 47.1 µM (inactive) | EC50 [4]: > 53 µM (inactive)

O=c1[nH][nH]c(=S)c(=O)[nH]1
AC50 (Cytochrome P450 2C19; read-out: AC50): 2 µM (inconclusive) | AC50 (Cytochrome P450 2C9): 2.51 µM (inconclusive)

CCCCc1nc2ccccc2c(NC(=O)CN(CC)CC)c1CCC
IC50 [5]: > 47.1 µM (inactive) | EC50 [4]: > 53 µM (inactive)

Clc1ccc(-c2[nH]nc3c2CCC3)cc1Cl
EC50 (Streptokinase A): > 150 µM (not active) | EC50 (Streptococcus): 13.9 µM (active) | EC50 [1]: 8.42 µM (active)

Cc1cc2nc(/C(C#N)=C\c3ccc(-c4ccccc4C(=O)O)o3)[nH]c2cc1C
EC50 [4]: 5.8 µM (active)

COc1ccc(/C=C/c2c([N+](=O)[O-])c(=O)n(C)c(=O)n2C)cc1O
IC50 [5]: > 47.1 µM (inactive) | EC50 [4]: > 53 µM (inactive)

CCCn1c(C(C)NS(=O)(=O)c2ccccc2)n[nH]c1=S (stereo not drawn)
IC50 [5]: > 47.1 µM (inactive) | EC50 [4]: > 53 µM (inactive)

COc1ncc2nc(C)c(=O)n(Cc3cccs3)c2n1
AC50 (Cytochrome P450 2D6): 25.1 µM (inconclusive)

Cc1ccc(-c2cc(C(F)F)nc(N3CCC(C)CC3)n2)cc1
EC50 (Streptokinase A): > 150 µM (not active) | EC50 (Streptococcus): 10 µM (active) | EC50 [1]: 6.63 µM (active)

CNc1nc(N(C)C)nc(N(C)C)n1 [PENTAMETHYL MELAMINE]
EC50 [4]: > 53 µM (inactive)

CC(=O)Oc1ccccc1C1=NN(C(=O)/C=C/c2ccccc2)C(c2ccccc2)C1 (stereo not drawn)
EC50 (Streptokinase A): > 150 µM (not active) | EC50 (Streptococcus): > 150 µM (not active) | EC50 [1]: 17.1 µM (active)

O=C1C=C(NCCN2CCOCC2)CC(c2ccccc2)C1 (stereo not drawn)
AC50 (Cytochrome P450 2C19; read-out: AC50): 39.8 µM (inconclusive)

COC(=O)CCCC1=CC2=C(c3ccccc3)C(=O)C(C)(OC(=O)C3CCCC3)C(=O)C2=CN1CCc1ccccn1 (stereo not drawn)
IC50 [5]: > 47.1 µM (inactive) | EC50 [4]: > 53 µM (inactive)

Cc1ccc(S(=O)(=O)Nc2cc(O)nc3c2CCC3)cc1
AC50 (Cytochrome P450 2D6): 2.51 µM (inconclusive)

COc1ccccc1NC(=O)C(=O)NNC(=O)COc1ccc2ccccc2c1
EC50 (Streptokinase A): > 150 µM (not active) | EC50 (Streptococcus): 17.7 µM (active) | EC50 [1]: 4.14 µM (active)

C=CCOC(=O)C(C#N)c1nc2ccccc2nc1N1CCN(c2ccccc2OCC)CC1 (stereo not drawn)
IC50 [5]: > 47.1 µM (inactive) | EC50 [4]: > 53 µM (inactive)

Cc1cc(C)c2c(n1)sc1c(=O)n(CC(=O)c3ccccc3)cnc12
EC50 (Streptokinase A): > 150 µM (not active) | EC50 (Streptococcus): 5.59 µM (active) | EC50 [1]: 0.95 µM (active)

O=C(NCc1ccccn1)Nc1ccc(F)c(Cl)c1
EC50 (Streptokinase A): > 150 µM (not active) | EC50 (Streptococcus): > 150 µM (not active) | EC50 [1]: > 150 µM (not active)

CCn1c2ccccc2c2cc(NC(=O)C/C(C)=N/NC(=O)c3ccccc3N)ccc21
AC50 (Cytochrome P450 2D6): 25.1 µM (inconclusive)

O=C(C1CC(=O)N(c2ccc(Br)cc2)C1)N1CCCC1 (stereo not drawn)
IC50 [5]: > 47.1 µM (inactive) | EC50 [4]: > 53 µM (inactive)

C=C(C)Cn1c(=O)c2c(nc3n2CC(C)CN3Cc2ccccc2)n(C)c1=O (stereo not drawn)
IC50 [5]: > 47.1 µM (inactive) | EC50 [4]: > 53 µM (inactive)

O=c1c2ccccc2c(-c2ccccc2)nn1-c1ccc(Cl)c(Cl)c1
AC50 (Cytochrome P450 2D6): 10 µM (inconclusive)

CC(Oc1ccc(Cl)cc1)C(=O)Nc1ccccc1N1CCOCC1 (stereo not drawn)
EC50 [4]: 7.37 µM (active)

CCC(C)Sc1cc(-c2nc3ccc(C)cn3c2NCc2ccccc2)ccc1OC (stereo not drawn)
EC50 (Streptokinase A): 2.75 µM (active) | EC50 (Streptococcus): 9.32 µM (active) | EC50 [1]: 2.32 µM (active)

O=C(OCc1cc(=O)n2ccsc2n1)C1(c2ccccc2)CC1
IC50 [5]: > 47.1 µM (inactive) | EC50 [4]: > 53 µM (inactive)

Cc1cc(=O)oc(C)c1C(=O)NCc1ccccn1
AC50 (Cytochrome P450 2C19): inconclusive

c1ccc(Oc2nc(-c3ccccn3)nc3ccccc23)cc1
EC50 [6]: 3.8 µM (active) | EC50 (Streptokinase A): > 150 µM (not active) | EC50 [7]: > 60 µM (not active) | EC50 (Streptococcus): 22.5 µM (active) | EC50 [1]: 44.1 µM (active)

Fc1ccccc1CNC(=S)Nc1ccc(Cl)cc1
IC50 [5]: 5.53 µM (active) | EC50 [4]: > 53 µM (inactive)

COc1ccccc1CNc1nc(-c2ccoc2)nc2ccccc12
AC50 (Cytochrome P450 2D6): 6.31 µM (active)

Nc1nc(OCc2ccccc2)c2[nH]cnc2n1 [6-O-BENZYLGUANINE]
AC50 (Cytochrome P450 2D6): 0.501 µM (inconclusive) | AC50 (Cytochrome P450 2C9): 39.8 µM (inconclusive)

CCOC(=O)c1c(CC(C)C)csc1N
IC50 [5]: > 47.1 µM (inactive) | EC50 [4]: > 53 µM (inactive)

From ChEMBL document CHEMBL1201862, “PubChem BioAssay data set” (2004)
